Laboratory results: PubChem BioAssay AID1996
Converted amounts (≈) assume the structure as drawn.

Conditions: buffer; pH 7.4; 200.0 µM

SMILES | solubility kinetic
CCCCC(CC)C(=O)N1CCN(C(=O)c2ccco2)CC1 (stereo not given) | 45.4 µg/mL (≈ 148 µM)
CCOC(=O)N1CCN(C(=O)c2c(N)no[n+]2[O-])CC1 | > 42.8 µg/mL
O=c1cc[nH]c2ccc(OC(F)(F)F)cc12 | > 34.4 µg/mL
CCCN(CC(=O)Nc1ccccc1OC)C(=O)C1CCCC1 | > 47.8 µg/mL
Cc1ccnc(SCC(=O)Nc2sccc2C#N)n1 | 13.2 µg/mL (≈ 45.5 µM)
Cc1ccc(N(CC(=O)N2CCCC2)S(C)(=O)=O)c(C)c1 | > 46.6 µg/mL
Cc1cccc(C(=O)OCC(=O)NCCN2C(=O)CSC2=O)c1[N+](=O)[O-] | > 57.2 µg/mL
COc1cc(OC)cc(C(=O)NCCc2cnc[nH]2)c1 | > 41.3 µg/mL
CCOC(=O)Cc1csc(NC(=O)CC(C)(C)CC(=O)O)n1 | > 49.3 µg/mL
CCN(CC(=O)NC(C)C)C(=O)[C@@H](NC(=O)c1ccco1)C(C)C | > 50.6 µg/mL
COc1ccc(-n2nc(C)c3sc(C)nc3c2=O)cc1 | > 43.1 µg/mL
CCOC(=O)c1ccccc1NC(=O)C1CSC2(C)CCC(=O)N12 (stereo not given) | > 52.3 µg/mL
COC(=O)c1cc(Nc2cc(C)c3ccc(O)cc3n2)cc(C(=O)OC)c1 | < 0.4 µg/mL
CC(C)C/C(=N/O)c1cn(C)c2ccccc12 | 21.5 µg/mL (≈ 93.4 µM)
Cc1ccnc(N2CCC(C(=O)NNC(=O)c3ccncc3)CC2)n1 | > 51.1 µg/mL
CCC1CCCCN1CC(=O)Nc1ccc2c(c1)OCCO2 (stereo not given) | > 45.7 µg/mL
Cc1cccc(C(=O)OC2CCCN(C)C2)c1C.Cl (stereo not given) | 36.9 µg/mL

SMILES | solubility kinetic
O=C(Cn1cc([N+](=O)[O-])ccc1=O)NC1CCCCC1 | > 41.9 µg/mL
COc1ccc(C(=O)OC(C)CN2CCOCC2)cc1.Cl (stereo not given) | > 47.4 µg/mL
COc1cccc(Nc2c([N+](=O)[O-])cncc2[N+](=O)[O-])c1 | > 43.5 µg/mL
CC1CN(C(=O)COC(=O)c2ccccc2O)CC(C)O1 (stereo not given) | 40.1 µg/mL (≈ 137 µM)
O=C(NCCCNC(=O)c1cnccn1)c1ccc(Cl)c(Cl)c1 | 41.4 µg/mL (≈ 117 µM)
CCOc1ccccc1C(=O)NN1CCOCC1 | > 37.5 µg/mL
COc1ccc(NC(=O)c2c(N)no[n+]2[O-])c(OC)c1 | 1.5 µg/mL (≈ 5.35 µM)
CCC(C)NC(=O)C1=CCN(S(=O)(=O)c2ccc(C)cc2)CC1 (stereo not given) | 43.5 µg/mL (≈ 129 µM)
CN(C)CC/C=C1\c2cc(Cl)ccc2Sc2cc(F)c(F)cc21.Cl | 21.8 µg/mL
O=C(N/N=C/C1CC2CCC1C2)C1CC1 (stereo not given) | > 30.9 µg/mL
O=C(Nc1ccc(Cl)cc1)NC1CCCCNC1=O (stereo not given) | > 42.3 µg/mL
CCC(C)N(C)C1CCN(C(=S)Nc2ccc(OC)cc2)CC1 (stereo not given) | > 50.3 µg/mL
Cl.O=C(NC12CC3CC(CC(C3)C1)C2)OC1CN2CCC1CC2 (stereo not given) | 47.7 µg/mL
O=C(c1c(F)cccc1F)N1CCCC1 | > 31.7 µg/mL
O=C(NCC1CCCCC1)c1ccc(=O)[nH]c1 | > 35.1 µg/mL
O=C(COc1ccccc1O)NC1CCCC1 | > 35.3 µg/mL
COc1cccc(NC(=O)CN(C)C(C)C(=O)N2CCCC2)c1 (stereo not given) | 44.4 µg/mL (≈ 139 µM)

Results, then the molecule that gave them:

solubility kinetic | SMILES
> 55.3 µg/mL | CS(=O)(=O)Nc1ccccc1C(=O)OCC(=O)NCc1cccs1
> 44.4 µg/mL | CCOC(=O)C(=O)C1=CN(Cc2ccccc2)C=C(C#N)C1
0.9 µg/mL (≈ 3.04 µM) | CCc1ccc2[nH]c(C(=O)Nc3ccc(C)c(F)c3)cc2c1
17.4 µg/mL (≈ 60.6 µM) | Cc1ccc(OCC(=O)Oc2ccccc2[N+](=O)[O-])cc1
> 55 µg/mL | COC(=O)CC1C(=O)NCCN1C(=O)c1sc2ccccc2c1Cl (stereo not given)
30.5 µg/mL (≈ 128 µM) | O=C(Nc1cccc2ncccc12)c1ccco1
> 44.4 µg/mL | Cc1cc(C)c(S(=O)(=O)Cc2ccccc2)c(Cl)n1
5.1 µg/mL (≈ 16.6 µM) | Cc1ccc(CNC(=O)CCc2cn(C)c3ccccc23)cc1
< 0.3 µg/mL | N#C/C(=C(/O)c1ccc(C(=O)c2ccccc2)cc1)c1nc2ccccc2[nH]1
2.3 µg/mL (≈ 6.3 µM) | O=C(Cc1ccccc1)Nc1ccc(NC(=O)c2ccccc2)c(Cl)c1
> 54.6 µg/mL | CC(C)(C)NC(=O)COc1ccc(CNCc2ccccn2)cc1.Cl
10.5 µg/mL (≈ 33.3 µM) | Cc1cc(=O)oc2cc(NS(=O)(=O)c3ccccc3)ccc12
38.9 µg/mL (≈ 139 µM) | O=C(O)COCC(=O)NCc1csc2ccccc12
15.4 µg/mL (≈ 47.8 µM) | Cc1cc(N2CC(C)OC(C)C2)n2cc(-c3ccccc3)nc2n1 (stereo not given)
25.3 µg/mL (≈ 74.3 µM) | Cc1ccnc(N(C(=O)Nc2ccccc2)C2=NCC(C)(C)S2)c1
> 50.5 µg/mL | CCCCNC(=O)CCc1nc2cccnc2n1Cc1ccccc1
3.4 µg/mL (≈ 11.5 µM) | O=C(NCc1ccc(Cl)cc1)c1ccc2ccccc2n1
< 0.2 µg/mL | CCn1cc(C(=O)Nc2cccc(C)c2)c(=O)c2ccc(C)nc21
> 53.5 µg/mL | CN(C(=O)Cc1c(C(=O)O)n(C)c2ccccc12)c1ccc(Cl)cc1
29.2 µg/mL (≈ 96.3 µM) | COc1ccc(N2C(=O)CSC2c2cccc(F)c2)cc1 (stereo not given)
42.9 µg/mL | [Cl-].c1ccc(Cn2c[n+](Cc3ccccc3)c3ccccc32)cc1
< 0.3 µg/mL | CCn1c(=O)c(C(=O)Nc2ccccc2)c(O)c2ccccc21
38.7 µg/mL (≈ 128 µM) | O=C(COc1ccccc1Cl)N1CCc2ccccc2C1
29.6 µg/mL (≈ 127 µM) | Cc1nc(NC(=O)c2ccccc2)sc1C
9.3 µg/mL (≈ 28.8 µM) | COc1ccc(-c2onc3ccc(C(=O)/C=C/N(C)C)cc23)cc1
33.8 µg/mL (≈ 142 µM) | Nc1ccccc1-c1nc2ccccc2[nH]c1=O

solubility kinetic | SMILES
3.4 µg/mL (≈ 6.91 µM) | COc1ccc(NS(=O)(=O)c2cc(NC(=O)c3ccccn3)ccc2OC)cc1Br
20.7 µg/mL (≈ 79.5 µM) | CCCn1c(=S)[nH]c2ccc(C(F)(F)F)cc21
> 46.8 µg/mL | O=C(NN1C(=O)C2C3C=CC(C3)C2C1=O)C(O)c1ccccc1 (stereo not given)
41.6 µg/mL (≈ 119 µM) | COc1cccc(NC(=S)N(CCN(C)C)Cc2cccs2)c1
2.1 µg/mL (≈ 7.6 µM) | Cc1ccc(NC(=O)c2cc(C)nc3ccccc23)cc1
> 50 µg/mL | Cc1ccc(S(=O)(=O)NCCNC(=O)c2ccc(C)nc2)cc1
3.5 µg/mL (≈ 10.5 µM) | COc1ccc(-c2noc(=O)n2Cc2ccc(F)cc2Cl)cc1
3.4 µg/mL (≈ 11.4 µM) | O=S(=O)(Cc1cc(-c2ccccc2)no1)c1ccccc1
51.4 µg/mL (≈ 145 µM) | O=C(O)CCC(=O)Nc1ccc(S(=O)(=O)Nc2nccs2)cc1
5.2 µg/mL (≈ 16.1 µM) | COc1ccc2c(=O)c(C(=O)NCCc3ccccc3)c[nH]c2c1
> 47.9 µg/mL | CC1=C/C(=N\OS(=O)(=O)c2ccccc2)C(C(C)C)=CC1=O
> 44.8 µg/mL | COc1ccc(CNc2c(CO)cnc3c2cnn3C)cc1
14.5 µg/mL (≈ 38.8 µM) | CCc1nc2ccccc2c(C(=O)OCc2nc3ccccc3c(=O)[nH]2)c1C
4.3 µg/mL (≈ 14 µM) | CCC1C(=O)C(CC)C(c2ccccc2)NC1c1ccccc1 (stereo not given)
48.2 µg/mL (≈ 134 µM) | Cc1cccc(NS(=O)(=O)c2ccc3[nH]c(=O)cc(C(=O)O)c3c2)c1
34.8 µg/mL (≈ 109 µM) | CC1CN(C(=O)c2ccc(-c3ccccc3Cl)o2)CC(C)O1 (stereo not given)
> 65.9 µg/mL | Cc1ccc(NS(=O)(=O)c2ccccc2[N+](=O)[O-])cc1S(=O)(=O)N1CCCCC1
8.2 µg/mL (≈ 27 µM) | Cc1ccc(SC(C)C(=O)NCc2ccc(F)cc2)cc1 (stereo not given)
6.2 µg/mL (≈ 17.8 µM) | CCOC(=O)C1CCN(Cc2cc(Cl)c3ccccc3c2O)CC1
10.8 µg/mL (≈ 35.2 µM) | Cc1nc(-c2ccccc2Cl)sc1C(=O)/C=C/N(C)C
> 45.8 µg/mL | COc1ccc(NC(=O)CS(=O)(=O)c2ccccc2)cc1
2 µg/mL (≈ 7.16 µM) | COc1ccc(N/C=C2\CCc3ccccc3C2=O)cc1
> 46.6 µg/mL | COc1ccc(CNC2CCN(Cc3ccccc3)CC2)cc1
> 42 µg/mL | O=C(O)C1CCCN1C1=NS(=O)(=O)c2ccccc21 (stereo not given)
27.1 µg/mL (≈ 70.1 µM) | COc1ccc2c(c1)-c1nc(/N=C/c3c(O)ccc4ccccc34)sc1CC2
